Tests used:
Type in all cases: in vivo
[1] = tested on: blackgrass (Alopecurus myosuroides); assay: Test A postemergence application, visual injury rating 0-100
Procedure, shortened: (§1)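 Rating: visual, day 10, untreated plants as reference, 0 no effect to 100 full control. Plants were in loam-sand and were treated either preemergence via directed soil spray or postemergence at the one- to two-leaf stage.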

[2] = tested on: oat, wild (wild oat, Avena fatua); assay: as above
Procedure, shortened: as §1

soybean (Glycine max) [3] = assay: as above
Procedure, shortened: as §1

[4] = tested on: horseweed (Erigeron canadensis); assay: as above
Procedure, shortened: as §1

kochia (Bassia scoparia) [5] = assay: as above
Procedure, shortened: as §1

[6] = tested on: palmer (palmer amaranth, palmer pigweed, Amaranthus palmeri); assay: as above
Procedure, shortened: as §1

[7] = tested on: barnyardgrass (Echinochloa crus-galli); assay: as above
Procedure, shortened: as §1

[8] = tested on: wheat (Triticum aestivum); assay: as above
Procedure, shortened: as §1

[9] = tested on: green foxtail (Setaria viridis); assay: as above
Procedure, shortened: as §1

[10] = tested on: ryegrass, Italian (italian ryegrass, Lolium multiflorum); assay: as above
Procedure, shortened: as §1

[11] = tested on: ragweed (common ragweed, Ambrosia artemisiifolia); assay: as above
Procedure, shortened: as §1

corn (Zea mays) [12] = assay: as above
Procedure, shortened: as §1

[13] = tested on: sedge, umbrella (small-flower umbrella sedge, Cyperus difformis); assay: Test B flooded paddy test, visual plant response rating 0-100; conditions: 250 g ai/ha, Flood, applied to paddy water, evaluated after 13 days
Procedure, shortened: (§2)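 Greenhouse, 13 d. Seedlings at 2-leaf stage, pots flooded to 3 cm, compound delivered into floodwater, water level held constant. Evaluated visually relative to controls.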

[14] = tested on: ducksalad (Heteranthera limosa); assay: as above; conditions: 250 g ai/ha, Flood, applied to paddy water, evaluated after 13 days
Procedure, shortened: as §2

rice (Oryza sativa) = assay: as above; conditions: 250 g ai/ha, Flood, applied to paddy water, evaluated after 13 days
Procedure, shortened: as §2

[15] = tested on: barnyardgrass (Echinochloa crusgalli); assay: as above; conditions: 250 g ai/ha, Flood, applied to paddy water, evaluated after 13 days
Procedure, shortened: as §2

[16] = tested on: blackgrass (Alopecurus myosuroides); assay: Test A preemergence soil spray, visual injury rating 0-100; conditions: 10 days
Procedure, shortened: as §1

[17] = tested on: oat, wild (wild oat, Avena fatua); assay: as above; conditions: 10 days
Procedure, shortened: as §1

soybean (Glycine max) [18] = assay: as above; conditions: 10 days
Procedure, shortened: as §1

kochia (Bassia scoparia) [19] = assay: as above; conditions: 10 days
Procedure, shortened: as §1

[20] = tested on: palmer (palmer amaranth, palmer pigweed, Amaranthus palmeri); assay: as above; conditions: 10 days
Procedure, shortened: as §1

[21] = tested on: barnyardgrass (Echinochloa crus-galli); assay: as above; conditions: 10 days
Procedure, shortened: as §1

[22] = tested on: wheat (Triticum aestivum); assay: as above; conditions: 10 days
Procedure, shortened: as §1

[23] = tested on: green foxtail (Setaria viridis); assay: as above; conditions: 10 days
Procedure, shortened: as §1

[24] = tested on: ryegrass, Italian (italian ryegrass, Lolium multiflorum); assay: as above; conditions: 10 days
Procedure, shortened: as §1

[25] = tested on: ragweed (common ragweed, Ambrosia artemisiifolia); assay: as above; conditions: 10 days
Procedure, shortened: as §1

corn (Zea mays) [26] = assay: as above; conditions: 10 days
Procedure, shortened: as §1

[27] = 62 g ai/ha, postemergence, 10 days, 0 = no effect, 100 = complete control
[28] = Postemergence, 16 g ai/ha, greenhouse 10 days, 0 no effect, 100 complete control
[29] = 62 g ai/ha, 0 = no effect, 100 = complete control

COC(=O)COC(=O)C1=CCC(NC(=O)C2(C)CN(c3cc(F)cc(F)c3)C(=O)O2)C1 (centres unmarked) [Compound 108]
Blackgrass plant response rating (0-100) [1, 27]: 90
Blackgrass plant response rating (0 to 100 scale) [1, 28]: 70
Oat, Wild plant response rating (0-100) [2, 27]: 80
Oat, Wild plant response rating (0 to 100 scale) [2, 28]: 30
Soybean plant response rating (0-100) (soybean (Glycine max) [3]; [27]): 70
Soybean plant response rating (0 to 100 scale) (soybean (Glycine max) [3]; [28]): 60
Horseweed plant response rating (0-100) [4, 27]: 70
Horseweed plant response rating (0 to 100 scale) [4, 28]: 30
Kochia plant response rating (0-100) (kochia (Bassia scoparia) [5]; [27]): 90
Kochia plant response rating (0 to 100 scale) (kochia (Bassia scoparia) [5]; [28]): 80
Pigweed, Palmer plant response rating (0-100) [6, 27]: 90
Pigweed, Palmer plant response rating (0 to 100 scale) [6, 28]: 70
Barnyardgrass plant response rating (0-100) [7, 27]: 100
Barnyardgrass plant response rating (0 to 100 scale) [7, 28]: 90
Wheat plant response rating (0-100) [8, 27]: 90
Wheat plant response rating (0 to 100 scale) [8, 28]: 50
Foxtail, Green plant response rating (0-100) [9, 27]: 90
Foxtail, Green plant response rating (0 to 100 scale) [9, 28]: 60
Ryegrass, Italian plant response rating (0-100) [10, 27]: 80
Ryegrass, Italian plant response rating (0 to 100 scale) [10, 28]: 60
Ragweed plant response rating (0-100) [11, 27]: 40
Ragweed plant response rating (0 to 100 scale) [11, 28]: 20
Corn plant response rating (0-100) (corn (Zea mays) [12]; [27]): 100
Corn plant response rating (0 to 100 scale) (corn (Zea mays) [12]; [28]): 100
Plant response rating, Sedge, Umbrella (0 to 100 scale, 0 is no effect and 100 is complete control) [13]: 70
Plant response rating, Ducksalad (0 to 100 scale, 0 is no effect and 100 is complete control) [14]: 70
Plant response rating, Rice (0 to 100 scale, 0 is no effect and 100 is complete control) (rice (Oryza sativa)): 85
Plant response rating, Barnyardgrass (0 to 100 scale, 0 is no effect and 100 is complete control) [15]: 50
Blackgrass plant response rating ([16]; 16 g ai/ha, 0 to 100 scale): 0
Blackgrass plant response rating (0-100) [16, 29]: 30
Oat, Wild plant response rating ([17]; 16 g ai/ha, 0 to 100 scale): 0
Oat, Wild plant response rating (0-100) [17, 29]: 70
Soybean plant response rating (soybean (Glycine max) [18]; 16 g ai/ha, 0 to 100 scale): 0
Soybean plant response rating (0-100) (soybean (Glycine max) [18]; [29]): 10
Kochia plant response rating (kochia (Bassia scoparia) [19]; 16 g ai/ha, 0 to 100 scale): 0
Kochia plant response rating (0-100) (kochia (Bassia scoparia) [19]; [29]): 50
Pigweed, Palmer plant response rating ([20]; 16 g ai/ha, 0 to 100 scale): 30
Pigweed, Palmer plant response rating (0-100) [20, 29]: 90
Barnyardgrass plant response rating ([21]; 16 g ai/ha, 0 to 100 scale): 20
Barnyardgrass plant response rating (0-100) [21, 29]: 100
Wheat plant response rating ([22]; 16 g ai/ha, 0 to 100 scale): 90
Wheat plant response rating (0-100) [22, 29]: 90
Foxtail, Green plant response rating ([23]; 16 g ai/ha, 0 to 100 scale): 30
Foxtail, Green plant response rating (0-100) [23, 29]: 100
Ryegrass, Italian plant response rating ([24]; 16 g ai/ha, 0 to 100 scale): 70
Ryegrass, Italian plant response rating (0-100) [24, 29]: 90
Ragweed plant response rating ([25]; 16 g ai/ha, 0 to 100 scale): 0
Ragweed plant response rating (0-100) [25, 29]: 0
Corn plant response rating (corn (Zea mays) [26]; 16 g ai/ha, 0 to 100 scale): 30
Corn plant response rating (0-100) (corn (Zea mays) [26]; [29]): 60

From patent US20260285850A1, “SUBSTITUTED OXAZOLIDINONES AND IMIDAZOLINONES AS HERBICIDES” (FMC CORPORATION, priority 2023, published 2026)
